# Measurements taken from ChEMBL document CHEMBL1201862, “PubChem BioAssay data set” (2004).
# The source made the active and inactive calls. Unless noted, the calls are words filed in the database; no cut-off is given here.
# Tests used:
# Candida albicans = experiment: fluconazole resistance reversal in C. albicans, dose response, CaCi-2 strain, Alamar Blue, dry powder, set 4 (AID 488943); assay type: functional, organism-based
# [1] = microbe, parasite or virus in culture; assay type: functional; conditions: Mycobacterium tuberculosis
# Cytochrome P450 3A4 = Cytochrome P450 3A4 (Homo sapiens, UniProt P08684);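 further: CYP3A4 tested as one member of a cytochrome P450 panel screen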
# Chain of Cytochrome P450 3A4 (P08684 whole entry): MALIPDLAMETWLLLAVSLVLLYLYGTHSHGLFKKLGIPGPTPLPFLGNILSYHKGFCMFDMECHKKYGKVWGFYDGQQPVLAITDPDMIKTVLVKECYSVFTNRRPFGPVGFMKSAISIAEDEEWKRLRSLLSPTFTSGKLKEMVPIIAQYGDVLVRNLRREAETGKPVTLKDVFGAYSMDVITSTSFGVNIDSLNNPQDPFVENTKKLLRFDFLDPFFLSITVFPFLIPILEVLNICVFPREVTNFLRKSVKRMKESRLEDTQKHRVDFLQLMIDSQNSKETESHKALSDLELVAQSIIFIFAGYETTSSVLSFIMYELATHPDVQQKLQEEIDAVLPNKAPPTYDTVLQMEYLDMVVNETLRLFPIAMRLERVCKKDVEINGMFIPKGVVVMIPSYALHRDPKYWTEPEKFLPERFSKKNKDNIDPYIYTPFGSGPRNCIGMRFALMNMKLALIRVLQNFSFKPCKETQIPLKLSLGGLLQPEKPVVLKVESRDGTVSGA
# [2] = M. tuberculosis growth inhibition, HTS (AID 449762); assay type: functional
# SUMO E1/E2 = SUMO E1/E2 (Homo sapiens, UniProt P63279+Q9UBE0+Q9UBT2); experiment: SAR analysis of SUMOylation using HTRF in an in-Vitro dose response assay. [Related pubchem assays (depositor defined):AID2006, AID2011, AID2018, AID2069, AID2658]; assay type: functional
# [3] = target: T1, Kappa-type opioid receptor (Homo sapiens, UniProt P41145); experiment: SAR analysis of Agonists of the Kappa Opioid Receptor (KOR) using an Image-Based Assay - Set 2. [Related pubchem assays (depositor defined):AID1777, AID1786, AID1966, AID2133, AID2136, AID2284, AID2285, AID2359]; assay type: functional
# T1 sequence (P41145 whole entry): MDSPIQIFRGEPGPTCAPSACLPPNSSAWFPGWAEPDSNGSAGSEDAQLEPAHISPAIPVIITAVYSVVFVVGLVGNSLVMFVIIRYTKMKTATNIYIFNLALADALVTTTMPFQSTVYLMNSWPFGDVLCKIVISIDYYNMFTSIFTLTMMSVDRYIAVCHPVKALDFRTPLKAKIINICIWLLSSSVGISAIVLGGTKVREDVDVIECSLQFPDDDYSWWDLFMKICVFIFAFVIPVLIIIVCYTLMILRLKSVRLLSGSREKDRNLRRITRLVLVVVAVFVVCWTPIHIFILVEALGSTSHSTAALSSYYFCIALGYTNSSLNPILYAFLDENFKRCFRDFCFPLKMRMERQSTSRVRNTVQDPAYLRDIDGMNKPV
# Mu-type opioid receptor [4] = target: T2, Mu-type opioid receptor (Homo sapiens, UniProt P35372); experiment: SAR Analysis of Antagonists of the MOR Receptor using an Image-Based Assay - Set 2. [Related pubchem assays (depositor defined):AID1777, AID1785, AID1786, AID1966, AID2133, AID2136, AID2284, AID2285, AID2420]; assay type: functional
# T2 sequence (P35372 whole entry): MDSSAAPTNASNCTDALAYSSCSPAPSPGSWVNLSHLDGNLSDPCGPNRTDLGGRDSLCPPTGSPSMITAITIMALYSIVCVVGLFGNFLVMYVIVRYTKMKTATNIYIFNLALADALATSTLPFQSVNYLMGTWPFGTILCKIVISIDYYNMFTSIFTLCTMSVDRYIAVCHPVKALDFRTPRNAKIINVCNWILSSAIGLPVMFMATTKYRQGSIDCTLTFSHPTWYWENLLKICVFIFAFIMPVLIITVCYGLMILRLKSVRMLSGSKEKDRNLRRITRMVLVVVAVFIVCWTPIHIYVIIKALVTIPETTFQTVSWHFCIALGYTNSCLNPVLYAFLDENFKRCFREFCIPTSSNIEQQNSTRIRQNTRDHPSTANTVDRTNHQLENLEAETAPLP
# Mu-type opioid receptor [5] = target: T2, Mu-type opioid receptor; experiment: SAR Analysis of Agonists of the MOR Receptor using an Image-Based Assay - Set 2. [Related pubchem assays (depositor defined):AID1777, AID1785, AID1786, AID1966, AID2133, AID2136, AID2284, AID2285, AID2352]; assay type: functional
# [6] = target: T1, Kappa-type opioid receptor; experiment: SAR analysis of small molecule agonists of the kappa opioid receptor via a luminescent beta-arrestin assay - Set 2. [Related pubchem assays (depositor defined):AID1777, AID1785, AID1786, AID1966, AID2133, AID2136, AID2284, AID449737]; assay type: functional
# [7] = target: T3, Delta-type opioid receptor (Homo sapiens, UniProt P41143); experiment: SAR Analysis of Agonists of the DOR Receptor using an Image-Based Assay - Set 2. [Related pubchem assays (depositor defined):AID1777, AID1785, AID1786, AID1966, AID2133, AID2136, AID2284, AID2285, AID2370]; assay type: functional
# T3 sequence (P41143 whole entry): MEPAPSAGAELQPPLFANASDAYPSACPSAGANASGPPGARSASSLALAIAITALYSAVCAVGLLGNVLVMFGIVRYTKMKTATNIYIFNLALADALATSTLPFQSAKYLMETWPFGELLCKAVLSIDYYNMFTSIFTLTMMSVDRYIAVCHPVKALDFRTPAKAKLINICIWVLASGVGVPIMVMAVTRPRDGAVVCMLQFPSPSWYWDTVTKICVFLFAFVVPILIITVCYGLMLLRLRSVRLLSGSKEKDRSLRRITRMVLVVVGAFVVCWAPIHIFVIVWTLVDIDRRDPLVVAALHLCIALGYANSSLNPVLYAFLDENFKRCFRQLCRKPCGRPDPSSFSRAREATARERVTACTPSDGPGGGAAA
# [8] = target: T3, Delta-type opioid receptor; experiment: SAR Analysis of Antagonists of the DOR Receptor using an Image-Based Assay - Set 2. [Related pubchem assays (depositor defined):AID1777, AID1785, AID1786, AID1966, AID2133, AID2136, AID2284, AID2285, AID2357]; assay type: functional
# [9] = target: T1, Kappa-type opioid receptor; experiment: SAR analysis of Antagonists of the Kappa Opioid Receptor (KOR) using an Image-Based Assay - Set 2. [Related pubchem assays (depositor defined):AID1777, AID1785, AID1786, AID1966, AID2133, AID2136, AID2284, AID2285, AID2348]; assay type: functional
# Hexokinase-1 = target: T4, Hexokinase-1 (Homo sapiens, UniProt P19367); experiment: hexokinase 1 activators, dose response, selectivity assay for HKDC1 activator project, biochemical (AID 504762); assay type: functional
# T4 sequence (P19367 whole entry): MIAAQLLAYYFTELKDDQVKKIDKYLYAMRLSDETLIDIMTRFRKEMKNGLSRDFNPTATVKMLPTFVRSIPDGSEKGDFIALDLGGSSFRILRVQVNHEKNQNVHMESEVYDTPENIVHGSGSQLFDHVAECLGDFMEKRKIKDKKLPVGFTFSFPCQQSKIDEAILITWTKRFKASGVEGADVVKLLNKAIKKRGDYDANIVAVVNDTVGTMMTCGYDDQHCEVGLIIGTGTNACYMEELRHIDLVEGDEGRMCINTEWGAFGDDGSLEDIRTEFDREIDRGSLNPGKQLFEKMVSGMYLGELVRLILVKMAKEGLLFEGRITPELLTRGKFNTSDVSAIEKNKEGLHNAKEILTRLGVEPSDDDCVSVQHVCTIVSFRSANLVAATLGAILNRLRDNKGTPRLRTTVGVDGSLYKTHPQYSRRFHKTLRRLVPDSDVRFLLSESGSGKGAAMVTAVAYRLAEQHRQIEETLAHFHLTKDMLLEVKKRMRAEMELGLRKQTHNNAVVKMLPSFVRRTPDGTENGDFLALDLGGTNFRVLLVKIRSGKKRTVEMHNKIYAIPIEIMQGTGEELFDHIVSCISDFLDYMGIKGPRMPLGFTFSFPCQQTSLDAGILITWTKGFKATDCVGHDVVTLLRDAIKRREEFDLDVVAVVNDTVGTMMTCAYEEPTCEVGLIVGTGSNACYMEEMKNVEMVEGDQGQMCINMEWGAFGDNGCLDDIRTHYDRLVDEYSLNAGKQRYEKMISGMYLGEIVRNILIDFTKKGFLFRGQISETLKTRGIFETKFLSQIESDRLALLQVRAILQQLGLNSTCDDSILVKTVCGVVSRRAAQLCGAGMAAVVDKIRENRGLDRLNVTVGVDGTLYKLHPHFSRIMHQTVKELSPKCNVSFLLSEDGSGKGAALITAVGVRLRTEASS
# Beta-galactosidase = Beta-galactosidase (Escherichia coli, UniProt Q8VNN2); experiment: PubChem AID 485352; assay type: functional
# [10] = target: T5, Zinc finger protein mex-5 (Caenorhabditis elegans, UniProt Q9XUB2); experiment: MEX-5/TCR-2 RNA interaction inhibitors, dose response, biochemical, C. elegans, fluorescence polarization (AID 1960)
# T5 sequence (Q9XUB2 whole entry): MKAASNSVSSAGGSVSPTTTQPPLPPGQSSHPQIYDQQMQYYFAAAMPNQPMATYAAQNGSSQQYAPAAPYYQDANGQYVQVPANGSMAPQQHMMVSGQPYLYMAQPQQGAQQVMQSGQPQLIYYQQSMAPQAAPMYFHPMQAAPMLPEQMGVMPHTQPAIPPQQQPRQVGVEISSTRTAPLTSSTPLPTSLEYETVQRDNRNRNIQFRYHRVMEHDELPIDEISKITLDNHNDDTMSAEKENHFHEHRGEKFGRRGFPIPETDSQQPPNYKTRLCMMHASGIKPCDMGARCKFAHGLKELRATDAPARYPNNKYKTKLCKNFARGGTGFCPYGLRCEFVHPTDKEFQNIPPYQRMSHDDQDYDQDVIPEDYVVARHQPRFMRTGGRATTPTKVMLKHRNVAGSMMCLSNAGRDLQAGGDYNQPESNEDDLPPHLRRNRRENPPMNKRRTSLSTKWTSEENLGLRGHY
# [11] = target: Lysine-specific demethylase 4C (Homo sapiens, UniProt Q9H3R0); experiment: GASC-1 (JMJD2C) histone demethylase inhibitors, dose response, biochemical, DELFIA europium, cherry-picked samples (AID 488835); assay type: functional
# Chain of Lysine-specific demethylase 4C (Q9H3R0 whole entry, the tested form may be a part): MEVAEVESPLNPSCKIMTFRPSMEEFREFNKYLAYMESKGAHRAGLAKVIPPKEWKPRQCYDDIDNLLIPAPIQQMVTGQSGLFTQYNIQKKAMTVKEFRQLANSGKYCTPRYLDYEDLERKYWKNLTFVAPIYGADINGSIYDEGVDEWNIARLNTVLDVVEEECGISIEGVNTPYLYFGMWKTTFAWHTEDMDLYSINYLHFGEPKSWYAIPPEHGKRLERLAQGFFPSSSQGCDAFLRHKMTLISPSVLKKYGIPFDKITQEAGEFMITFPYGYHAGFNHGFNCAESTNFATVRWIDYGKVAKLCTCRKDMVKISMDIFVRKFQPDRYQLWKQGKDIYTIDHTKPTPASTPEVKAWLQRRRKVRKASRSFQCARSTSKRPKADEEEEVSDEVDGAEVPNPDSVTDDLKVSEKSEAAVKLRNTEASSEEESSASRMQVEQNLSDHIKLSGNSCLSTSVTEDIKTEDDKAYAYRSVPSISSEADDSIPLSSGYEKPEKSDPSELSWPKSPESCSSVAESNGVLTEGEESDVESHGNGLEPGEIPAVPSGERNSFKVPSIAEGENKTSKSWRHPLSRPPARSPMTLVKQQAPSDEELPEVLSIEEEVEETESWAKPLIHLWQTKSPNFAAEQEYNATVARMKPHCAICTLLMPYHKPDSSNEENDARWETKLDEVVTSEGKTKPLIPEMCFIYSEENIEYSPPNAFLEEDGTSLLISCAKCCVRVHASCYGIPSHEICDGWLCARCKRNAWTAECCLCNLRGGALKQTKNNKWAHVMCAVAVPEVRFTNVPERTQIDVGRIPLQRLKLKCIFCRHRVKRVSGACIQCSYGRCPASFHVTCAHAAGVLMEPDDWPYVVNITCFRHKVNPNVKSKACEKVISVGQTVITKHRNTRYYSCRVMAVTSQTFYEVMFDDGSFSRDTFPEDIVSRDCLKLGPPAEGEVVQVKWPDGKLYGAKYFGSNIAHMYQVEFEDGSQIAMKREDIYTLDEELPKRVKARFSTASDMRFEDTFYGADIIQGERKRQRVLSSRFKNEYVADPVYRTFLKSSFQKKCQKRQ
# [12] = target: T6, RNA-binding protein pos-1 (Caenorhabditis elegans, UniProt G5EF15); experiment: inhibitors of POS-1/mex-3 RNA binding, dose response, biochemical, fluorescence polarization (AID 1964);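 further: purified POS-1 fused to maltose binding protein made in E. coli; potency of compounds blocking POS-1 binding to fluorescent RNA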
# T6 sequence (G5EF15 whole entry): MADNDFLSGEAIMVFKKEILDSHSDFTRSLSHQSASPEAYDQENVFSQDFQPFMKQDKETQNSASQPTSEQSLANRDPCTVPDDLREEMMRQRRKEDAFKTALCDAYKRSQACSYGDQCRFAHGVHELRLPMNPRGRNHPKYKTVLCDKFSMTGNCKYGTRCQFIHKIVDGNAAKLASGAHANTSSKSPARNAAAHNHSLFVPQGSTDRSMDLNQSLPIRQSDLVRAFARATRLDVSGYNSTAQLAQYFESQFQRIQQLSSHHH
# Hexokinase HKDC1 = target: T7, Hexokinase HKDC1 (Homo sapiens, UniProt Q2TB90); experiment: HKDC1 hexokinase activators, dose response, biochemical, W721R variant (AID 504730); assay type: functional
# T7 sequence (Q2TB90 whole entry): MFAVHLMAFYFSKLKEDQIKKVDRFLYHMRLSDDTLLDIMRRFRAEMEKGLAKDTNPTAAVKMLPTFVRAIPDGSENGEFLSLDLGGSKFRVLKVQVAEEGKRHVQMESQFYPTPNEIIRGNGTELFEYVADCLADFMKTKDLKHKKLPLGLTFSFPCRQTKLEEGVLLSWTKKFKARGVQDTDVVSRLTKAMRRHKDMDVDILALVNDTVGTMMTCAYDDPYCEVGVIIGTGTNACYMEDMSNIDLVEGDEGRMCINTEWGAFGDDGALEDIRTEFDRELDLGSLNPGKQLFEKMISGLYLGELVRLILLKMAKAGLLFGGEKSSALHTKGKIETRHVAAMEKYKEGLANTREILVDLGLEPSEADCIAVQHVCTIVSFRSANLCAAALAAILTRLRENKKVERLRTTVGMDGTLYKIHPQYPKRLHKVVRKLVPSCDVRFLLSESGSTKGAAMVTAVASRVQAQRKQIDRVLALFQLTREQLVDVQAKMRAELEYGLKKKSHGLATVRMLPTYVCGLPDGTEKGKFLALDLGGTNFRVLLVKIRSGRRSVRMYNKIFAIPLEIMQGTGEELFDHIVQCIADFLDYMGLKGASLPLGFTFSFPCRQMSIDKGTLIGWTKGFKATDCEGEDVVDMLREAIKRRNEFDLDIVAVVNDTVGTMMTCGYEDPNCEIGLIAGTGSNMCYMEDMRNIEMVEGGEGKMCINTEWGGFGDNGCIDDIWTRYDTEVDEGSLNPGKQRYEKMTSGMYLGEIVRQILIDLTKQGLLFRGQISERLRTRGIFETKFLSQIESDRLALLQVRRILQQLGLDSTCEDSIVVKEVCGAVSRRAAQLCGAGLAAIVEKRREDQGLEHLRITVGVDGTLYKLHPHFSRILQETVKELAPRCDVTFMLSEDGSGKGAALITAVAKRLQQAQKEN
# [13] = target: T8, Type-1 angiotensin II receptor (Homo sapiens, UniProt P30556); experiment: AT1 receptor antagonists, dose response, selectivity assay for APJ receptor antagonist project, cell-based, uHTS hits (AID 463214); assay type: functional;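 further: antagonist potency against angiotensin II stimulated AT1 response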
# T8 sequence (P30556 whole entry): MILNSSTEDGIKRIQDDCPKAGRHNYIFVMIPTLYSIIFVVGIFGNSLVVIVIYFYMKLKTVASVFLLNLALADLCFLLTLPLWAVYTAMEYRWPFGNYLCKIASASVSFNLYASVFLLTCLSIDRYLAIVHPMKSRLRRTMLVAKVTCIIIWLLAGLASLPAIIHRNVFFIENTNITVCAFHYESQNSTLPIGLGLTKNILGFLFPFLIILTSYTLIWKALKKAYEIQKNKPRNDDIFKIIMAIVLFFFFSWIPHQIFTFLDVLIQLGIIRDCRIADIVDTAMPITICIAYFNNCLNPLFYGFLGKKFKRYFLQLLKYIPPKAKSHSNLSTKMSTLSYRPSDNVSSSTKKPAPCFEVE
# [14] = target: Lysine-specific demethylase 4A (Homo sapiens, UniProt O75164); experiment: JMJD2A histone demethylase inhibitors, dose response, selectivity assay for GASC-1 inhibitor project, biochemical, DELFIA europium, cherry-picked samples (AID 488840)
# Chain of Lysine-specific demethylase 4A (O75164 whole entry): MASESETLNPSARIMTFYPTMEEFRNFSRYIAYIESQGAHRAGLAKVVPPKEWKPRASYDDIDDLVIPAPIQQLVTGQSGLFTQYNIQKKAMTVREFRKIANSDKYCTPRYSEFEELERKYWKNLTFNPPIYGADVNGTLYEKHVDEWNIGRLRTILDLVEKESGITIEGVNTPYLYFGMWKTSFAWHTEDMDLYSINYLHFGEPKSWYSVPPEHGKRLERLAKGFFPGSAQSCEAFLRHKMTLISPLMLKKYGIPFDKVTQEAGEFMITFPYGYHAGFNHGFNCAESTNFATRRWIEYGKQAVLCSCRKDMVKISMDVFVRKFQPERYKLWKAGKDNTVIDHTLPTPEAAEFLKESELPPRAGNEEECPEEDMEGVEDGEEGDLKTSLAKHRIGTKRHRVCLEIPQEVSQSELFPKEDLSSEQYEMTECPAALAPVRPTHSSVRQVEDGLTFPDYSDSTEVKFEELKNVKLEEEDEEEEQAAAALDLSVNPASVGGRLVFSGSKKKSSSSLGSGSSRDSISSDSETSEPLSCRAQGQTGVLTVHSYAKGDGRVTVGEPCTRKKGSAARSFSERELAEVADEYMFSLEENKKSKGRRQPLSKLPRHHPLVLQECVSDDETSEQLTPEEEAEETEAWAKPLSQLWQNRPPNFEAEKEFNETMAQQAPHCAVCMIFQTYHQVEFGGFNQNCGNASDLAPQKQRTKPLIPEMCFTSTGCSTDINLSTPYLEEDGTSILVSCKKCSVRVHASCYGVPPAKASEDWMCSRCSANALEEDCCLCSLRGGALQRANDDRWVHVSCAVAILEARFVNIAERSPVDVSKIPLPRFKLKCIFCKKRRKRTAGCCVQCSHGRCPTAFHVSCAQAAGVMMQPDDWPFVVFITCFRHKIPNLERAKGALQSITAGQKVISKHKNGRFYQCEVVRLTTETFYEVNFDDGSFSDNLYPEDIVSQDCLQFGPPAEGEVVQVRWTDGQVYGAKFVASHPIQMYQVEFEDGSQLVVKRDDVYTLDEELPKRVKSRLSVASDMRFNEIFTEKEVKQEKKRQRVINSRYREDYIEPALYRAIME
# [15] = target: T9, Alkaline phosphatase, tissue-nonspecific isozyme (Homo sapiens, UniProt P05186); experiment: TNAP enzyme activators, dose response, selectivity assay for human IAP activator project, biochemical, TNAP isozyme, human IAP uHTS hits (AID 488886); assay type: functional;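 further: potency of compounds raising TNAP activity as a selectivity check on IAP activators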
# T9 sequence (P05186 whole entry): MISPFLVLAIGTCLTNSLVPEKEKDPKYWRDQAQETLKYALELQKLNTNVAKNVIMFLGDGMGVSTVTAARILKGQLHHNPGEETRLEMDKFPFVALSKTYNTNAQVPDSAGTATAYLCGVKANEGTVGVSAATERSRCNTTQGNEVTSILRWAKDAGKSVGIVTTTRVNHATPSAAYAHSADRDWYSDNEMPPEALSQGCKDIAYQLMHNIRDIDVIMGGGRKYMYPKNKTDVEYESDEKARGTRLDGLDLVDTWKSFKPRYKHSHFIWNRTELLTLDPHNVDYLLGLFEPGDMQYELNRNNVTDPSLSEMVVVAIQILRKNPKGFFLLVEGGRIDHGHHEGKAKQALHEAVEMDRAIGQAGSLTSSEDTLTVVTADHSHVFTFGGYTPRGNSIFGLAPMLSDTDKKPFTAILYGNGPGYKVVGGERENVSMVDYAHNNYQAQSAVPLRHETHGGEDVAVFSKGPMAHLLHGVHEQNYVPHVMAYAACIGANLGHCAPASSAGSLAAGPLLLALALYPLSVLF
# [16] = target: Intestinal-type alkaline phosphatase (Mus musculus, UniProt P24822); experiment: PubChem AID 488874; assay type: functional
# Chain of Intestinal-type alkaline phosphatase (Mus musculus, UniProt P24822) (P24822 whole entry): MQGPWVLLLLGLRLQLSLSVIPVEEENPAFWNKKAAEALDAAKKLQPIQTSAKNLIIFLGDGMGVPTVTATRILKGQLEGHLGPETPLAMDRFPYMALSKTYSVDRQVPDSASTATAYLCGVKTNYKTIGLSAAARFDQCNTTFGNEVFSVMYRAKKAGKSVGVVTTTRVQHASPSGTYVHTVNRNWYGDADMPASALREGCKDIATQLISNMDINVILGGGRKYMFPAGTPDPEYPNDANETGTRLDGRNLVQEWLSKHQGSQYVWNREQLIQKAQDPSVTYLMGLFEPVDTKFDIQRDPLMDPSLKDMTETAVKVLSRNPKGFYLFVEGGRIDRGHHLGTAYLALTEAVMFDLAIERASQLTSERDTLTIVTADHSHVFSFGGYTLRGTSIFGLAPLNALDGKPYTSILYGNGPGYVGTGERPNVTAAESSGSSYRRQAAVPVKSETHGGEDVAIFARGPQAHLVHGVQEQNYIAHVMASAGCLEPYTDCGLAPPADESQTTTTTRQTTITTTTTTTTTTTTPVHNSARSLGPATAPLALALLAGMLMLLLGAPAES
# [17] = target: T10, Intestinal-type alkaline phosphatase (Homo sapiens, UniProt P09923); experiment: human IAP activators, dose response, biochemical, luminescent, uHTS hits, set 2 (AID 488817); assay type: functional;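 further: potency of activators that raise enzyme activity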
# T10 sequence (P09923 whole entry): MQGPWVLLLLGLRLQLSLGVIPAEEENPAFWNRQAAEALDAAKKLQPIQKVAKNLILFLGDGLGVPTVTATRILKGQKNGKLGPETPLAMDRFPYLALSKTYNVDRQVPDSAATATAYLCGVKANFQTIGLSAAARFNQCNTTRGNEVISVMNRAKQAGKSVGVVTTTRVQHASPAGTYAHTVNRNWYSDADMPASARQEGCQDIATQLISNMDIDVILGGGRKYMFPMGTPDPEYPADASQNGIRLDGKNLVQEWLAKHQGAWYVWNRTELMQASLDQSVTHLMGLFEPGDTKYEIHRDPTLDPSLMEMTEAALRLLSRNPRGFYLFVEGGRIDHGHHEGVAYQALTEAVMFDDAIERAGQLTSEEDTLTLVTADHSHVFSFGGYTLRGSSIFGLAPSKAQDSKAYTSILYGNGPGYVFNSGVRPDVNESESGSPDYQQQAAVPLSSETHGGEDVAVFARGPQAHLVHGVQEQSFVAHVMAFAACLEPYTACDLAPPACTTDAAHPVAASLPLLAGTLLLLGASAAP
# [18] = target: T10, Intestinal-type alkaline phosphatase; experiment: human intestinal alkaline phosphatase activators, dose response, biochemical, luminescence, uHTS hits (AID 463120); assay type: functional
smiles,measurement,setting,value
Clc1ccc2c(N3CCNCC3)ccnc2c1,AC50,Candida albicans,21.7 µM (active)
COC(=O)C(Cc1ccc(OC(=O)c2ccc(C(F)(F)F)cc2)cc1)N1Cc2ccccc2C1=O (centres undefined),CC50,[1],37.4 µM (active)
same,AC50,Cytochrome P450 3A4,inconclusive
same,IC50,[2],> 100 µM (active)
S=c1[nH]nc(-c2cc(-c3ccccc3)[nH]n2)n1N=Cc1ccc(Br)s1,IC50,SUMO E1/E2,11.3 µM (active)
COc1ccc(CSc2nnc(-c3ccccn3)n2Cc2cccs2)cc1,EC50,[3],5.98 µM (active)
same,IC50,Mu-type opioid receptor [4],> 32 µM (inactive)
same,EC50,Mu-type opioid receptor [5],> 32 µM (inactive)
same,EC50,[6],9.61 µM (active)
same,EC50,[7],> 32 µM (inactive)
same,IC50,[8],> 32 µM (inactive)
same,IC50,[9],> 32 µM (inactive)
CC(=O)C1=C(c2ccccc2)N(C(C)=O)n2c(C)nnc2S1,EC50,Hexokinase-1,20.8 µM (inactive)
same,EC50,Beta-galactosidase,16.8 µM (active)
same,EC50,[10],10.7 µM (active)
same,AC50,[11],0.8 µM (active)
same,EC50,[12],191 µM (active)
same,EC50,Hexokinase HKDC1,26 µM (inactive)
same,IC50,[13],11.3 µM (active)
same,AC50,[14],56.3 µM (active)
O=C(Cc1ccc(Cl)c(Cl)c1)NNC(=S)NCC1CCCO1 (centres undefined),EC50,[15],20.2 µM (active)
same,IC50,[16],49.6 µM (active)
same,EC50,[17],17.5 µM (active)
same,EC50,[18],14.3 µM (active)
